The substances below were run on human hepatocyte growth factor receptor mRNA.
For “ISIS 209541: 2′-MOE gapmer, phosphorothioate backbone, sequence accaagtactgtaagagagg (antisense ACCAAGTACTGTAAGAGAGG; all phosphorothioate, sugars by position and methylation of C not given here; 2'-MOE gapmer)”, the “inhibition of human hepatocyte growth factor receptor expression” value (shortened to “inhibition”) was “at least 35%”.
With “ISIS 209542: 2′-MOE gapmer, phosphorothioate backbone, sequence cttgcttccactaaaaatga (antisense CTTGCTTCCACTAAAAATGA; all phosphorothioate, sugars by position and methylation of C not given here; 2'-MOE gapmer)” the “inhibition” value was “at least 35%”.
“ISIS 209543: 2′-MOE gapmer, phosphorothioate backbone, sequence gatgccaccgtgcactgtgc (antisense GATGCCACCGTGCACTGTGC; all phosphorothioate, sugars by position and methylation of C not given here; 2'-MOE gapmer)” was tested, and the “inhibition” value was “at least 35%”.
For “ISIS 209544: 2′-MOE gapmer, phosphorothioate backbone, sequence taatagtgcaattttggcaa (antisense TAATAGTGCAATTTTGGCAA; all phosphorothioate, sugars by position and methylation of C not given here; 2'-MOE gapmer)”, the “inhibition” value was “at least 35%”.
In the case of “ISIS 209546: 2′-MOE gapmer, phosphorothioate backbone, sequence aattcaagttttggactcca (antisense AATTCAAGTTTTGGACTCCA; all phosphorothioate, sugars by position and methylation of C not given here; 2'-MOE gapmer)”, the “inhibition” value is reported as “at least 35%”.
“ISIS 209547: 2′-MOE gapmer, phosphorothioate backbone, sequence tcctgcttcaatttcccata (antisense TCCTGCTTCAATTTCCCATA; all phosphorothioate, sugars by position and methylation of C not given here; 2'-MOE gapmer)” was tested, and the “inhibition” value was “at least 35%”.
For “ISIS 209548: 2′-MOE gapmer, phosphorothioate backbone, sequence tcaagaagccctcaatattt (antisense TCAAGAAGCCCTCAATATTT; all phosphorothioate, sugars by position and methylation of C not given here; 2'-MOE gapmer)”, the “inhibition” value was “at least 35%”.
In the case of “ISIS 209549: 2′-MOE gapmer, phosphorothioate backbone, sequence cctgagcattactatctctt (antisense CCTGAGCATTACTATCTCTT; all phosphorothioate, sugars by position and methylation of C not given here; 2'-MOE gapmer)”, the “inhibition” value is reported as “at least 35%”.
With “ISIS 209550: 2′-MOE gapmer, phosphorothioate backbone, sequence tgcgcgctgtagtcccagct (antisense TGCGCGCTGTAGTCCCAGCT; all phosphorothioate, sugars by position and methylation of C not given here; 2'-MOE gapmer)” the “inhibition” value was “at least 35%”.
